{
  "source": "patent US9522935B2",
  "about": "“Commands and method of treating cancer via RHO pathway” (priority 2013, dated 2016)",
  "test_system": "HepG2 cells",
  "test": "Nude mouse model of hepatocellular carcinoma (HepG2), growth rate",
  "type": "in vivo, nude mice",
  "details": "nude mouse model, 75 mg/kg, twice a day, versus blank carrier control",
  "protocol": "In contrast, LD30 (1 mg/kg/time, twice a day) reduced the growth rate of HepG2 cells by about 63%, with statistical significance (p<0.05) when compared with the ethanol control.\nLD030 was also compared with Nexavar for their effects on the growth rate of HepG2 cells.\nA further study was conducted on liver cancer cell line in nude mice (HepG2), where Nexavar's dosage was 30 mg/kg, twice a day and LD030's dosage was 1 mg/kg, twice a day along with a blank control and a combination of LD030 and Nexavar. The result is shown in FIG. 21 where Nr stands for Nexavar. […] When compared with the blank, LD030's effect is statistically significant (p<0.05).",
  "data": [
    {"smiles": "CNC(=O)c1cc(Oc2ccc(NC(=O)Nc3ccc(Cl)c(C(F)(F)F)c3)cc2)ccn1", "note": "[Nexavar, reference compound]", "values": [
      {"measurement": "reduction of growth rate of HepG2 cells", "result": "about 80%"}
    ]}
  ]
}
